Experimental data from paper PMC8129988 (Inorganic Chemistry Frontiers, 2021).

Legend:
[1] = cyclic voltammetry; type: physicochemical; details: DMF, 0.2 M [n-Bu4N][BF4], 1.5 mM complex, scan rate 100 mV s^-1
Description: Since the redox potential is a crucial characteristic for the activation of cobalt(III)-based prodrugs systems, we investigated the novel complexes by cyclic voltammetry in comparison to Co(acac)2LEGFR. Measurements were performed in dimethylformamide (DMF) (+0.2 M [n-Bu4N][BF4]) at a scan speed of 100 mV s^−1. […] Even at a higher scan speed of 1000 mV s^−1, the redox processes were still completely irreversible for all complexes (Fig. S5 ^†).
The compounds were dissolved in DMF (+0.2 M [n-Bu4N][BF4]) to obtain a final concentration of 1.5 mM. Electrochemical experiments were conducted on an EG&G PARC 273A potentiostat/galvanostat with a scan rate of 100–1000 mV s^−1 at room temperature. Argon was bubbled through the solution before every measurement to remove oxygen. A three-electrode configuration cell was used with a glassy carbon electrode as working electrode, which was polished before every measurement. The reference electrode was Ag/Ag^+/ACN (10 mM AgNO3) and the auxiliary electrode was a platinum wire. The potentials were referenced to an internal standard redox couple of ferrocenium/ferrocene and calculated to the NHE (E1/2 = +0.72 V vs. NHE).[63] […] Redox potentials measured relative to the Ag/AgCl/KCl (3.5 M) reference electrode and converted to the NHE using +0.205 V. Measurements were at least repeated three times and the mean values were calculated.

[2] = serum stability in fetal calf serum (HPLC-MS); type: in vitro ADME; details: 37 °C
Description: Therefore, we only investigated the stability of the novel complexes in fetal calf serum (FCS). As reference again Co(acac)2LEGFR[26] was included. The complexes were dissolved in 50 mM phosphate puffer and mixed 1 : 10 with fetal calf serum (FCS; buffered with 150 mM phosphate buffer to keep a stable pH of 7.4) to a final concentration of 50 μM. The samples were incubated at 37 °C and after 0, 2, 4, 6, 24 and 26 h extracted with acetonitrile and measured by HPLC-MS. […] This indeed confirms, that by avoiding the direct attachment of the ethylenediamine moiety to an aromatic ring system, complexes with much higher stability can be generated. Since no distinct difference in stability between Co(acac)2LPon and Co(Meacac)2LPon within 26 h could be observed, measurements were repeated up to 72 h.
For serum stability measurements, 135 μL FCS, buffered with 150 mM phosphate (Na2HPO4/NaH2PO4) to maintain a pH value of 7.4, were mixed with 15 μL of a 500 μM stock solution of the respective complex in 50 mM phosphate buffer to reach a final concentration of 50 μM. The samples were incubated at 37 °C. At different time points to 20 μL serum 40 μL of ACN were added. After vigorously shaking for 2 min the suspension was centrifuged at 6000 rpm for 10 min. The supernatant was taken with a syringe and directly measured via HPLC-MS. The samples were analyzed on an Agilent 1260 Infinity system using a Waters Atlantis T3 column (150 mm × 4.6 mm) coupled to a Bruker Amazon SL ESI-IT mass spectrometer. Water and acetonitrile (both containing 0.1% formic acid) were used as eluents with a gradient of 1–99% acetonitrile within 29 min.

[3] = system: BCR-ABL-driven K-562 xenografts; assay: K-562 xenograft experiment; type: in vivo, C.B.17/SCID mice; details: 10 mg kg^-1 i.p., three times a week for two weeks
Description: Based on this promising in vitro data, the antitumor activity of our novel cobalt(III) complexes Co(acac)2LPon and Co(Meacac)2LPon was evaluated in xenograft mouse models. As a first in vivo experiment, BCR-ABL-driven K-562 cells were injected subcutaneously (s.c.) and treated intraperitoneally (i.p.) with the test compounds at 10 mg kg^−1 or the respective amount of solvent three times a week, for two weeks. Treatment with our novel derivatives was well tolerated and even after repeated i.p. applications no substantial body weight loss was observed (Fig. S13A ^†). […] Consequently, anticancer activity of Co(acac)2LPon was also investigated against FGFR3-driven UM-UC-14 xenografts using the identical treatment regime.
Fig. 11 In vivo anticancer activity of the investigated cobalt(III) complexes. […] Tumor sizes were evaluated by caliper measurement. […] Statistical significance was calculated by two-way ANOVA with Sidak multiple comparison test with p < 0.05(*); <0.01 (**).
Eight-to nine-week-old male C.B.17/SCID mice were bread in-house (originally Harlan) and were kept in pathogen-free conditions and controlled environment with 12 h light–dark cycle. […] Tumor growth was evaluated by daily recording of tumor size by caliper measurement. […]

Structure (SMILES): CC(=O)C=C(C)[O-].CC(=O)C=C(C)[O-].Cc1ccc(C(=O)Nc2ccc(CNCCN)c(C(F)(F)F)c2)cc1C#Cc1cnc2cccnn12.O=C(O)C(F)(F)F.[Co+3] [Co(acac)2LPon, Bis(2,4-pentanedionato)N-(4-(((2-aminoethyl)amino)methyl)-3-(trifluoromethyl)phenyl)-3-(imidazo[1,2-b]pyridazin-3-ylethynyl)-4-methylbenzamide cobalt(III) 2,2,2-trifluoroacetate]
- cathodic peak potential (Co(III) to Co(II), irreversible) [1]: −315 mV vs. NHE
- intact complex remaining in FCS ([2]; 26 h, pH 7.4, 50 μM): ~90%
- intact compound remaining in FCS ([2]; 72 h, pH 7.4): ~70%
- tumor growth vs solvent controls [3]: significantly reduced tumor growth
